Test results taken from publication PMC9734143, “An efficient human stem cells derived cardiotoxicity testing platform for testing oncotherapeutic analogues of quercetin and cinnamic acid” (Scientific Reports, 2022).
Where two headings read alike, the source gives them in different places.

Assays:
WJMSCs [1] = assay: MTT cell viability assay in undifferentiated WJMSCs; type: cell-based, human; details: 24 h; Dox 1 µM, 5FU 1 µM, Cis 5 µM; undifferentiated cells
Method: Similarly, the toxicity of these compounds in terms of the viability of cells was estimated by using the MTT assay and cell counting kit-8 (CCK-8) assay. For MTT assay, after 24 h of treatments, MTT (5 mg/ml of PBS; HiMedia, India) was added, and cells were incubated for 2 h at 37 °C. The formazan crystals that were formed after the incubation were dissolved using dimethyl sulfoxide (DMSO). For the CCK-8 assay, 10 μL of CCK-8 solution (Boster Biological Technology, Pleasanton, CA, USA) was added to each well and incubated for 2 h at 37 °C.

WJMSCs [2] = assay: CCK-8 assay in undifferentiated WJMSCs; type: cell-based, human; details: 24 h; Dox 1 µM, 5FU 1 µM, Cis 5 µM; undifferentiated cells
Method: Mesenchymal stem cells from Wharton's jelly (WJMSCs) were isolated from the Wharton's jelly of the human umbilical cord via enzymatic digestion as described previously with slight modifications. Experiments were performed after obtaining clearance from Institutional Ethical Committee ([…] Hospital, Bangalore, India. Informed consent was obtained from the donor and all the experiments were performed in accordance with relevant guidelines and regulations. Rat cardiomyoblast cell line, H9C2 was obtained from National Centre for Cell Science (NCCS), Pune, India. WJMSCs were maintained in KnockoutTM Dulbecco's Modified Eagle Medium/Nutrient Mixture F-12 (KO-DMEM/F-12; Gibco, MA, USA) with 10% Fetal bovine serum (FBS, Gibco, MA, USA), 1X GlutaMAX (Gibco, MA, USA), and 1X Antibiotic Antimycotic Solution (Gibco, MA, USA). H9C2 cells were cultured in Dulbecco's Modified Eagle Medium-High Glucose (DMEM-HG; Gibco, MA, USA) supplemented with 10% FBS and 1X Antibiotic-Antimycotic solution at 37 °C in 5% CO2 incubator. […] Similarly, the toxicity of these compounds in terms of the viability of cells was estimated by using the MTT assay and cell counting kit-8 (CCK-8) assay. For MTT assay, after 24 h of treatments, MTT (5 mg/ml of PBS; HiMedia, India) was added, and cells were incubated for 2 h at 37 °C. The formazan crystals that were formed after the incubation were dissolved using dimethyl sulfoxide (DMSO). For the CCK-8 assay, 10 μL of CCK-8 solution (Boster Biological Technology, Pleasanton, CA, USA) was added to each well and incubated for 2 h at 37 °C. The absorbance for MTT and CCK-8 assay was measured at 570 nm and 450 nm respectively using the EnSightTM Multimode plate reader (Perkin Elmer, MA, USA)[49],[50].

[3] = tested on: cardiac markers (NKX2.5, GATA4, Troponin I, Troponin T, MHCα) in WJCM; assay: qRT-PCR gene expression of cardiac-specific markers in WJCM
Method: Differentiation of WJMSCs was done using a proprietary combination of DNMT and HDAC inhibitors in KO-DMEM/F-12 containing 10% FBS for 48 h. Induction media was replaced with culture media i.e. KO-DMEM/F-12 with 1X GlutaMAX and, 10% FBS after 48 h for 7 days[23].
WJMSC-derived cardiomyocytes (WJCM) and H9C2 were treated with NMJ and QMJ analogues for 24 h. […] To illustrate the toxicity specific to cardiac cells and not a general cytotoxicity, WJMSCs were treated with positive cardiotoxic drugs.
Total ribonucleic acid (RNA) was isolated using RNAiso Plus (TaKaRa, Shiga, Japan) followed by cDNA conversion using PrimeScript™ 1st strand cDNA synthesis kit (TaKaRa, Shiga, Japan). Quantitative reverse transcriptase-polymerase chain reaction (qRT-PCR) was performed by using TB Green™ Premix Ex Taq™ II (Tli RNase H Plus; TaKaRa, Shiga, Japan) for cardiac markers in a QuantStudio™ 5 real-time PCR Systems (Applied Biosystems, USA). All the primers were purchased from Sigma Aldrich, Bangalore, India (Table 1). The relative gene expression was calculated using 2^-∆∆CT and GAPDH, a housekeeping gene was used as endogenous control[52],[53].

WJMSCs [4] = assay: LDH release assay in undifferentiated WJMSCs; type: cell-based, human; details: 24 h; Dox 1 µM, 5FU 1 µM, Cis 5 µM; undifferentiated cells
Method: Mesenchymal stem cells from Wharton's jelly (WJMSCs) were isolated from the Wharton's jelly of the human umbilical cord via enzymatic digestion as described previously with slight modifications. Experiments were performed after obtaining clearance from Institutional Ethical Committee ([…] Hospital, Bangalore, India. Informed consent was obtained from the donor and all the experiments were performed in accordance with relevant guidelines and regulations. Rat cardiomyoblast cell line, H9C2 was obtained from National Centre for Cell Science (NCCS), Pune, India. WJMSCs were maintained in KnockoutTM Dulbecco's Modified Eagle Medium/Nutrient Mixture F-12 (KO-DMEM/F-12; Gibco, MA, USA) with 10% Fetal bovine serum (FBS, Gibco, MA, USA), 1X GlutaMAX (Gibco, MA, USA), and 1X Antibiotic Antimycotic Solution (Gibco, MA, USA). H9C2 cells were cultured in Dulbecco's Modified Eagle Medium-High Glucose (DMEM-HG; Gibco, MA, USA) supplemented with 10% FBS and 1X Antibiotic-Antimycotic solution at 37 °C in 5% CO2 incubator. […] The experiment was performed as per the manufacturer's protocol. Absorbance was taken at 490 nm and 680 nm (background signal) using multimode plate reader. LDH activity was calculated by subtracting absorbance taken at 680 nm from 490 nm.

[5] = tested on: WJMSC-derived cardiomyocytes (WJCM); assay: MTT and CCK-8 cell viability assays in WJCM; type: cell-based, human; details: 24 h; analogues at Vero IC50 concentration; Dox 1 µM
Method: (§1) Similarly, the toxicity of these compounds in terms of the viability of cells was estimated by using the MTT assay and cell counting kit-8 (CCK-8) assay. For MTT assay, after 24 h of treatments, MTT (5 mg/ml of PBS; HiMedia, India) was added, and cells were incubated for 2 h at 37 °C. The formazan crystals that were formed after the incubation were dissolved using dimethyl sulfoxide (DMSO). For the CCK-8 assay, 10 μL of CCK-8 solution (Boster Biological Technology, Pleasanton, CA, USA) was added to each well and incubated for 2 h at 37 °C. The absorbance for MTT and CCK-8 assay was measured at 570 nm and 450 nm respectively using the EnSight™ Multimode plate reader (Perkin Elmer, MA, USA)[49],[50].

H9C2 cells [6] = assay: MTT cell viability assay in H9C2 cells; type: cell-based, rat; details: 24 h; analogues at Vero IC50 concentration; Dox 1 µM
Method: as §1

[7] = tested on: cardiomyocytes (WJCM and H9C2 cells); assay: Cardiotoxicity across parameters as summarised in the discussion (WJCM and H9C2 cells); type: cell-based, human and rat; details: for overall cardiotoxicity across the parameters analyzed: analogues at Vero IC50 concentration, 24 h
Excerpt: We investigated the effects of 3-hydroxyflavone (QMJ-2, QMJ-5, and QMJ-6) and cinnamyl sulfonamide-hydroxamate (NMJ-1, NMJ-2, NMJ-3) in WJCM and H9C2 cells using the concentrations reported for non-cancerous Vero cells. The prerequisite for any synthesized drug molecules is that they should be nontoxic to cardiac cells.

H9C2 cells [8] = assay: LDH release assay in H9C2 cells; type: cell-based, rat; details: 24 h; analogues at Vero IC50 concentration
Method: (§2) The experiment was performed as per the manufacturer’s protocol. Absorbance was taken at 490 nm and 680 nm (background signal) using multimode plate reader. LDH activity was calculated by subtracting absorbance taken at 680 nm from 490 nm.

[9] = tested on: Vero, a non-cancerous cell line; set-up: method as in PMID 25824412, PMID 30687400; details: read-out: IC50 in Vero cells; cited from earlier work
[10] = tested on: WJMSC-derived cardiomyocytes (WJCM); assay: LDH release assay in WJCM; type: cell-based, human; details: 24 h; analogues at Vero IC50 concentration
Method: as §2

colorectal cancer = tested on: colorectal cancer; set-up: method as in PMID 25824412, PMID 30687400; details: previously reported studies; cited from earlier work
[11] = qRT-PCR, analogues at Vero IC50 concentration, Dox, 5FU, Cis as positive cardiotoxic drugs
[12] = discussion summary, cell model not specified
[13] = qRT-PCR, analogues at Vero IC50 concentration

Compound | MTT cell viability in WJMSCs (WJMSCs [1]) | CCK-8 in WJMSCs (WJMSCs [2]) | cardiac marker gene expression in WJCM (all markers together) [3, 11] | LDH release in WJMSCs (WJMSCs [4]) | cardiac marker gene expression in WJCM (all markers together) [3] | decrease in viability of H9C2 cells (MTT) (H9C2 cells [6]) | ROS level in treated cardiomyocytes [7, 12] | active mitochondria status in treated cardiomyocytes [7, 12] | intracellular calcium level in treated cardiomyocytes [7, 12] | LDH release in H9C2 cells (H9C2 cells [8]) | IC50 [9] [µM] | LDH release in WJCM [10] | concentration found effective against cancer (colorectal cancer) [µM] | GATA4 gene expression in WJCM [3, 13] | MHCα gene expression in WJCM [3, 13] | Troponin I gene expression in WJCM [3, 13] | overall cardiotoxicity across the parameters analyzed [7] | cytotoxic effect against cardiomyocytes by MTT, CCK-8 and LDH assay [7, 12] | further results
O=c1[nH]cc(F)c(=O)[nH]1 [5FU, 5-fluorouracil] | no significant difference | no significant difference | reduced all the cardiac markers expression drastically | no significant difference | – | – | – | – | – | – | – | – | – | – | – | – | – | – | –
N.N.[Cl][Pt][Cl] [Cis, cisplatin] | – | no significant difference | – | no significant difference | reduced all the cardiac markers expression drastically | – | – | – | – | – | – | – | – | – | – | – | – | – | –
COc1cccc2c1C(=O)c1c(O)c3c(c(O)c1C2=O)C[C@@](O)(C(=O)CO)C[C@@H]3O[C@H]1C[C@H](N)[C@H](O)[C@H](C)O1 [Dox, doxorubicin, reference compound] | no significant difference | no significant difference | reduced all the cardiac markers expression drastically | no significant difference | – | ~25% | increased ROS level | affected cardiomyocyte mitochondrial activity | alternation in calcium | – | – | – | – | – | – | – | – | – | toxicity / cell viability in WJCM (MTT, CCK-8), result in words [5]: reduced cell viability drastically; NO production / NO levels [7, 12]: reduced NO production
O=C(/C=C/c1ccc(S(=O)(=O)NCc2cccs2)cc1)NO [NMJ-1] | – | – | drastic reduction | – | – | 10–20% | increased ROS levels | loss of mitochondria | increased the level | increase in LDH | 9.7 | increase in LDH | 5.07 | decreased the expression | decreased the expression | decreased the expression | cardiotoxic | induced toxicity | –
Cc1ccc(-c2oc3ccccc3c(=O)c2O)cc1 [QMJ-2, 3-hydroxy-2-(4-methylphenyl)-4H-1-benzopyran-4-one] | – | – | – | – | drastic reduction | 10–20% | increased ROS levels | loss of mitochondria | increased the level | increase in LDH | 140 | increase in LDH | 68 | decreased the expression | decreased the expression | decreased the expression | cardiotoxic | induced toxicity | Troponin T gene expression in WJCM, result in words [3, 13]: milder increase
Cc1ccc(-c2oc3cc(C)ccc3c(=O)c2O)cc1 [QMJ-5, 3-Hydroxy-7-methyl-2-(4-methylphenyl)-4H-1-benzopyran-4-one] | – | – | drastic reduction | – | – | 10–20% | increased ROS levels | loss of mitochondria | increased the level | increase in LDH | 55.6 | increase in LDH | 27.4 | decreased the expression | decreased the expression | decreased the expression | cardiotoxic | induced toxicity | –
